The target of data set [1] is T1, Amyloid-beta precursor protein (Homo sapiens, UniProt P05067). Put plainly: Inhibition of amyloid-beta (unknown origin) aggregation at 25 uM at 1:10 compound:amyloidbeta ratio incubated for 24 hrs by ThT fluorescence assay.
The target of data set [2] is T1, Amyloid-beta precursor protein. Kind of data set: Inhibition of amyloid-beta (unknown origin) aggregation at 1:10 compound:amyloidbeta ratio incubated for 24 hrs by ThT fluorescence assay.
The subject of the next data set is N2a. Kind of data set: Cytotoxicity against mouse Neuro2a cells assessed as reduction in cell viability at 50 uM incubated for 48 hrs by Alamar blue assay. Type of data set: toxicity, cell-based. (Alamar Blue is a resazurin reagent that responds to reducing activity.)
Data set [3] is described as follows: Competitive binding affinity to Zn(II) assessed as metal chelating activity by measuring compound-Zn(II) complex formation incubated for 30 mins in the presence of CaCl2 by UV-vis spectrophotometric analysis.
Data set [4] is described as follows: Competitive binding affinity to Cu(II) assessed as metal chelating activity by measuring compound-Cu(II) complex formation incubated for 30 mins in the presence of CaCl2 by UV-vis spectrophotometric analysis.
The nature of data set [5]: Competitive binding affinity to Fe(III) assessed as metal chelating activity by measuring compound-Fe(III) complex formation incubated for 30 mins in the presence of MnCl2 by UV-Visible spectrophotometric analysis.
The target of data set [6] is T1, Amyloid-beta precursor protein. Kind of data set: Binding affinity to amyloid-beta (unknown origin) in Tris-HCL buffer assessed as conformational change at 10 uM at 1:1 molar ratio incubated for 24 hrs by circular dichroism analysis. On the technique in general: Circular dichroism is the unequal absorption of left and right circularly polarised light.
The nature of data set [7]: Metal chelating activity assessed as compound-Cu(II) complex formation by measuring hyperchromic shift at 1:1 molar ratio incubated for 30 mins by UV-Visible spectrophotometric analysis.
The target in data set [8] is T1, Amyloid-beta precursor protein. Put plainly: Inhibition of Cu(II)-induced amyloid-beta (unknown origin) aggregation assessed as disaggregation at 10 uM preincubated with CuSO4.5H2O for 30 mins followed by compound addition and measured after 24 hrs by ThT fluorescence assay.
Data set [9] is described as follows: Competitive binding affinity to Zn(II) assessed as metal chelating activity by measuring compound-Zn(II) complex formation incubated for 30 mins in the presence of copper by UV-vis spectrophotometric analysis.
Data set [10] is described as follows: Competitive binding affinity to Zn(II) assessed as metal chelating activity by measuring compound-Zn(II) complex formation incubated for 30 mins in the presence of MnCl2 by UV-vis spectrophotometric analysis.
The nature of data set [11]: Competitive binding affinity to Fe(III) assessed as metal chelating activity by measuring compound-Fe(III) complex formation incubated for 30 mins in the presence of FeCl2 by UV-Visible spectrophotometric analysis.
A short description of data set [12]: Competitive binding affinity to Zn(II) assessed as metal chelating activity by measuring compound-Zn(II) complex formation incubated for 30 mins in the presence of MgSO4.7H2O by UV-vis spectrophotometric analysis.
A short description of data set [13]: Competitive binding affinity to Cu(II) assessed as metal chelating activity by measuring compound-Cu(II) complex formation incubated for 30 mins in the presence of MnCl2 by UV-vis spectrophotometric analysis.
Data set [14] can be described thus: Antioxidant activity assessed as DPPH radical scavenging activity at 10 uM incubated under dark condition for 30 mins by absorbance based plate reader analysis. It is filed as functional. Background: DPPH is a stable violet radical that fades when it is reduced.
A short description of data set [15]: Metal chelating activity assessed as compound-Fe(III) complex formation by measuring hyperchromic shift at 1:1 molar ratio incubated for 30 mins by UV-Visible spectrophotometric analysis.
Data set [16] in a line: Competitive binding affinity to Fe(III) assessed as metal chelating activity by measuring compound-Fe(III) complex formation incubated for 30 mins in the presence of copper by UV-Visible spectrophotometric analysis.
A short description of data set [17]: Competitive binding affinity to Fe(III) assessed as metal chelating activity by measuring compound-Fe(III) complex formation incubated for 30 mins in the presence of NiCl2 by UV-Visible spectrophotometric analysis.
The nature of data set [18]: Competitive binding affinity to Zn(II) assessed as metal chelating activity by measuring compound-Zn(II) complex formation incubated for 30 mins in the presence of NiCl2 by UV-vis spectrophotometric analysis.
Data set [19] in a line: Competitive binding affinity to Cu(II) assessed as metal chelating activity by measuring compound-Cu(II) complex formation incubated for 30 mins in the presence of FeCl2 by UV-vis spectrophotometric analysis.
A short description of data set [20]: Competitive binding affinity to Fe(III) assessed as metal chelating activity by measuring compound-Fe(III) complex formation incubated for 30 mins in the presence of MgSO4.7H2O by UV-Visible spectrophotometric analysis.
The nature of data set [21]: Metal chelating activity assessed as compound-Zn(II) complex formation by measuring hyperchromic shift at 1:1 molar ratio incubated for 30 mins by UV-Visible spectrophotometric analysis.
The nature of data set [22]: Competitive binding affinity to Cu(II) assessed as metal chelating activity by measuring compound-Cu(II) complex formation incubated for 30 mins in the presence of NiCl2 by UV-vis spectrophotometric analysis.
Data set [23] is described as follows: Competitive binding affinity to Zn(II) assessed as metal chelating activity by measuring compound-Zn(II) complex formation incubated for 30 mins in the presence of FeCl2 by UV-vis spectrophotometric analysis.
A short description of data set [24]: Competitive binding affinity to Cu(II) assessed as metal chelating activity by measuring compound-Cu(II) complex formation incubated for 30 mins in the presence of MgSO4.7H2O by UV-vis spectrophotometric analysis.
Data set [25] is described as follows: Competitive binding affinity to Fe(III) assessed as metal chelating activity by measuring compound-Fe(III) complex formation incubated for 30 mins in the presence of zinc by UV-Visible spectrophotometric analysis.
The nature of data set [26]: Competitive binding affinity to Cu(II) assessed as metal chelating activity by measuring compound-Cu(II) complex formation incubated for 30 mins in the presence of ZnSO4.7H2O by UV-vis spectrophotometric analysis.
The nature of data set [27]: Competitive binding affinity to Fe(III) assessed as metal chelating activity by measuring compound-Fe(III) complex formation incubated for 30 mins in the presence of CaCl2 by UV-Visible spectrophotometric analysis.
The nature of data set [28]: Metal chelating activity assessed as compound-Cu(II) complex formation by measuring hyperchromic shift incubated for 30 mins by UV-Visible spectrophotometric analysis.
Data set [29] in a line: Metal chelating activity assessed as compound-Fe(III) complex formation by measuring hyperchromic shift incubated for 30 mins by UV-Visible spectrophotometric analysis.
Data set [30] is described as follows: Metal chelating activity assessed as compound-Zn(II) complex formation by measuring hyperchromic shift incubated for 30 mins by UV-Visible spectrophotometric analysis.

Structures are written as SMILES. Active and inactive are the calls of the source. No cut-off for these calls is given here.

These results are taken from ChEMBL document CHEMBL5356959, “Bifunctional backbone modified squaramide dipeptides as amyloid beta (Aβ) aggregation inhibitors” (Bioorg Med Chem, 2024).

T1 sequence (P05067 whole entry): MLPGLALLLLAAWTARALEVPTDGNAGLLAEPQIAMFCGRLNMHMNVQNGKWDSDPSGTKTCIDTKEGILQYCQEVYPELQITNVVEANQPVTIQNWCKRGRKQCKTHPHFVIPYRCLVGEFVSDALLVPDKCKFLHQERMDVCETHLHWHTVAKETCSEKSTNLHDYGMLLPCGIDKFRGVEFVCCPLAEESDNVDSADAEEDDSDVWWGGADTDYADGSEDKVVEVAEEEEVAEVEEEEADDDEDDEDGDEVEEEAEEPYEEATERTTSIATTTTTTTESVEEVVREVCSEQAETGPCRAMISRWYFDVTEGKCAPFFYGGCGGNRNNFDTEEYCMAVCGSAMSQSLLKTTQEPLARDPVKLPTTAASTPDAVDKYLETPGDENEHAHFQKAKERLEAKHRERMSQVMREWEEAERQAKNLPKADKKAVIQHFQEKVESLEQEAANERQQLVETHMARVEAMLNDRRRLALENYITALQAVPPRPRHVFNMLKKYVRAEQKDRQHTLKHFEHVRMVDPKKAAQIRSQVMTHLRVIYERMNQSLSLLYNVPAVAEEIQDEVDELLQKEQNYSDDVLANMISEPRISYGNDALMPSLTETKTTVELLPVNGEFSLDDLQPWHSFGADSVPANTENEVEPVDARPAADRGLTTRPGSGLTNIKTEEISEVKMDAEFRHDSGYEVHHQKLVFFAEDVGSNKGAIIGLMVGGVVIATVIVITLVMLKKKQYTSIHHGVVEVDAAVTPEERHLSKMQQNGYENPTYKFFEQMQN

As a reminder, the IC50 is the midpoint of a concentration-inhibition curve. For the compound `CC(C)(C)OC(=O)N[C@H](CNc1c(N[C@@H](Cc2ccccc2)C(=O)O)c(=O)c1=O)Cc1ccccc1`, in data set [1], the inhibition result is “Active”. Besides, the half-maximal inhibitory concentration (IC50) in data set [2] amounted to 14.6 µM. Moreover, in the data set with N2a, the Activity result is “Non-Toxic”.

Regarding `CC(C)C[C@H](Nc1c(NC[C@H](Cc2ccccc2)NC(=O)OC(C)(C)C)c(=O)c1=O)C(=O)O`, the Activity result in the data set with N2a was “Non-Toxic”.

In the case of `CC[C@@H](C)[C@H](Nc1c(NC[C@H](Cc2ccccc2)NC(=O)OC(C)(C)C)c(=O)c1=O)C(=O)O`, in the data set with N2a, the Activity entry is on record as “Non-Toxic”.

Turning to `C[C@H](O)[C@H](Nc1c(NC[C@H](Cc2ccccc2)NC(=O)OC(C)(C)C)c(=O)c1=O)C(=O)O`, the result in data set [3], in [4], in [5], in [6], in [7] and in data set [9] was Active. Moreover, the result in data set [10], in [11], in [12], in data set [13], in data set [14] and in data set [15] was Active. Moreover, the outcome in [16], in data set [17], in data set [18], in data set [19], in data set [20] and in data set [21] was Active. Further, the outcome in [22], in data set [23], in data set [24], in [25], in data set [26] and in data set [27] was Active. For the same compound, the inhibition entry in [8] and in [1] was “Active” throughout. Moreover, the IC50 in data set [2] came to 8.08 µM. Further, the Activity entry in the data set with N2a is reported as “Non-Toxic”.

Consider `CC(C)(C)OC(=O)N[C@H](CNc1c(N2CCC[C@H]2C(=O)O)c(=O)c1=O)Cc1ccccc1`, for which, in the data set with N2a, the Activity result was “Non-Toxic”.

Turning to `CC(C)(C)OC(=O)N[C@H](CNc1c(N[C@@H](CC(N)=O)C(=O)O)c(=O)c1=O)Cc1ccccc1`, in data set [1], the inhibition result is “Active”. Further, in data set [2], the half-maximal inhibitory concentration (IC50) came to 17.5 µM. Besides, in the data set with N2a, the Activity entry is “Non-Toxic”.

On to `CC(C)(C)OC(=O)N[C@H](CNc1c(N[C@@H](CO)C(=O)O)c(=O)c1=O)Cc1ccccc1`, for which the Activity result in the data set with N2a is given as “Non-Toxic”.

Take `CC(C)(C)OC(=O)N[C@H](CN)Cc1ccccc1`: the result in [28], in data set [29] and in [30] was inactive.

Regarding `CC(C)(C)OC(=O)N[C@H](CNc1c(N[C@@H](Cc2c[nH]c3ccccc23)C(=O)O)c(=O)c1=O)Cc1ccccc1`, in the data set on N2a, the Activity result is given as “Non-Toxic”.

Regarding `CC(C)(C)OC(=O)N[C@H](CNc1c(N[C@@H](CCC(N)=O)C(=O)O)c(=O)c1=O)Cc1ccccc1`, the Activity result in the data set on N2a is given as “Non-Toxic”.

As for `CC(C)(C)OC(=O)N[C@H](CNc1c(N[C@@H](CCC(=O)O)C(=O)O)c(=O)c1=O)Cc1ccccc1`, the Activity result in the data set on N2a is on record as “Non-Toxic”.

For `CSCC[C@H](Nc1c(NC[C@H](Cc2ccccc2)NC(=O)OC(C)(C)C)c(=O)c1=O)C(=O)O`, the Activity result with N2a is recorded as “Non-Toxic”.

For `C[C@H](Nc1c(NC[C@H](Cc2ccccc2)NC(=O)OC(C)(C)C)c(=O)c1=O)C(=O)O`, the Activity entry in the data set on N2a is “Non-Toxic”.

Consider `COc1c(OC)c(=O)c1=O`, for which the outcome in [28], in data set [29] and in [30] was Active.

For the compound `CC(C)[C@H](Nc1c(NC[C@H](Cc2ccccc2)NC(=O)OC(C)(C)C)c(=O)c1=O)C(=O)O`, the outcome in data set [3], in data set [9], in data set [10], in data set [12], in [14] and in [18] was Active. For the same compound, the result in [23] was Active. The result in [4], in data set [7], in [13], in data set [19], in data set [22] and in [24] was inactive. Also, the result in data set [26] was inactive. Also, the inhibition result in data set [8] and in data set [1] was “Active” throughout. Moreover, in data set [2], the concentration for half-maximal inhibition (IC50) came to 7.71 µM. Moreover, the Activity result with N2a is on record as “Non-Toxic”.

Take `CC(C)(C)OC(=O)N[C@H](CNc1c(N[C@@H](Cc2c[nH]cn2)C(=O)O)c(=O)c1=O)Cc1ccccc1`: the Activity entry with N2a is “Non-Toxic”.

For the compound `COc1c(NC[C@H](Cc2ccccc2)NC(=O)OC(C)(C)C)c(=O)c1=O`, the outcome in data set [28], in [29] and in [30] was Active.

With `CC(C)(C)OC(=O)N[C@H](CNc1c(N[C@@H](CCCNC(=N)N)C(=O)O)c(=O)c1=O)Cc1ccccc1`, the Activity entry in the data set with N2a is “Non-Toxic”.

`CC(C)(C)OC(=O)N[C@H](CNc1c(NCC(=O)O)c(=O)c1=O)Cc1ccccc1`: the Activity entry in the data set with N2a is recorded as “Non-Toxic”.

`CC(C)(C)OC(=O)N[C@H](CNc1c(N[C@@H](CS)C(=O)O)c(=O)c1=O)Cc1ccccc1`: the Activity result in the data set on N2a is “Non-Toxic”.

`CC(C)(C)OC(=O)N[C@H](CNc1c(N[C@@H](CCCCN)C(=O)O)c(=O)c1=O)Cc1ccccc1`: in the data set with N2a, the Activity entry was “Non-Toxic”.

`CC(C)(C)OC(=O)N[C@H](CNc1c(N[C@@H](CC(=O)O)C(=O)O)c(=O)c1=O)Cc1ccccc1`: in the data set with N2a, the Activity result is reported as “Non-Toxic”.

Consider `CC(C)(C)OC(=O)N[C@H](CNc1c(N[C@@H](Cc2ccc(O)cc2)C(=O)O)c(=O)c1=O)Cc1ccccc1`, for which, in the data set on N2a, the Activity entry is “Non-Toxic”.
